According to ChEMBL document CHEMBL1201862, “PubChem BioAssay data set” (2004):
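Protocol summary: plate cells (96-well), add compound at 5 concentrations, incubate 48 h, interpolate endpoints linearly. GI50 marks 50% less growth.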 Activity calls are given as the source filed them. Rule as the data show it: active = GI50 up to about 1.1 µM and inactive = higher.

Tests used:
Assay in all cases: NCI-60 cell line screen, 48 h
A549 = test system: A549
HCT-116 = test system: HCT-116
HOP-92 = test system: HOP-92
K562 = test system: K562
LOX IMVI = test system: LOX IMVI
Malme-3M = test system: Malme-3M
NCI-H522 = test system: NCI-H522
SF-268 = test system: SF-268
SF-295 = test system: SF-295
SF-539 = test system: SF-539
SK-MEL-28 = test system: SK-MEL-28
SK-MEL-2 = test system: SK-MEL-2
SK-MEL-5 = test system: SK-MEL-5
SNB-75 = test system: SNB-75
UACC-257 = test system: UACC-257
HL-60 = test system: HL-60

SMILES | GI50 (A549) | GI50 (HCT-116) | GI50 (HOP-92) | GI50 (K562) | GI50 (LOX IMVI) | GI50 (Malme-3M) | GI50 (NCI-H522) | GI50 (SF-268) | GI50 (SF-295) | GI50 (SF-539) | GI50 (SK-MEL-28) | GI50 (SK-MEL-2) | GI50 (SK-MEL-5) | GI50 (SNB-75) | GI50 (UACC-257) | GI50 (HL-60)
O=C1OC2CCCC[C@@H]2C2C[C@]34CCCCC3[C@@H](C(=O)O4)C12 (stereo partly specified) | > 100 µM (inactive) | > 100 µM (inactive) | > 100 µM (inactive) | > 100 µM (inactive) | > 100 µM (inactive) | > 100 µM (inactive) | > 100 µM (inactive) | > 100 µM (inactive) | > 100 µM (inactive) | > 100 µM (inactive) | > 100 µM (inactive) | > 100 µM (inactive) | > 100 µM (inactive) | > 100 µM (inactive) | > 100 µM (inactive) | –
CCCC(=O)c1ccc(=O)n(C)c1 | > 100 µM (inactive) | > 100 µM (inactive) | > 100 µM (inactive) | > 100 µM (inactive) | > 100 µM (inactive) | > 100 µM (inactive) | > 100 µM (inactive) | > 100 µM (inactive) | > 100 µM (inactive) | > 100 µM (inactive) | > 100 µM (inactive) | > 100 µM (inactive) | > 100 µM (inactive) | > 100 µM (inactive) | – | > 100 µM (inactive)
CC(=O)OCC1OC(NC(=S)N/N=C2\CC(c3ccccc3)Oc3ccccc32)C(OC(C)=O)C(OC(C)=O)C1OC(C)=O (stereo unspecified) | > 100 µM (inactive) | > 100 µM (inactive) | > 100 µM (inactive) | > 100 µM (inactive) | > 100 µM (inactive) | > 100 µM (inactive) | > 100 µM (inactive) | > 100 µM (inactive) | > 100 µM (inactive) | > 100 µM (inactive) | – | – | > 100 µM (inactive) | > 100 µM (inactive) | > 100 µM (inactive) | > 100 µM (inactive)
Cc1nn(C(=O)CC(=O)Nc2ccccc2Cl)c(C)c1/N=N/c1ccccc1Cl | > 100 µM (inactive) | > 100 µM (inactive) | > 100 µM (inactive) | > 100 µM (inactive) | > 100 µM (inactive) | > 100 µM (inactive) | – | 85.7 µM (inactive) | > 100 µM (inactive) | 80.9 µM (inactive) | > 100 µM (inactive) | > 100 µM (inactive) | > 100 µM (inactive) | 82 µM (inactive) | > 100 µM (inactive) | > 100 µM (inactive)
O=C(c1ccc(Cl)cc1)N(C(=S)N1CCN(c2ccccc2)CC1)c1ccccc1 | > 100 µM (inactive) | > 100 µM (inactive) | > 100 µM (inactive) | > 100 µM (inactive) | > 100 µM (inactive) | > 100 µM (inactive) | > 100 µM (inactive) | > 100 µM (inactive) | > 100 µM (inactive) | > 100 µM (inactive) | > 100 µM (inactive) | > 100 µM (inactive) | > 100 µM (inactive) | > 100 µM (inactive) | > 100 µM (inactive) | > 100 µM (inactive)
O=C(CC(=O)C(=O)CC(=O)OCc1ccccc1)OCc1ccccc1 | 60.8 µM (inactive) | 44.6 µM (inactive) | 58.1 µM (inactive) | 58.6 µM (inactive) | – | > 100 µM (inactive) | 31.3 µM (inactive) | 32.3 µM (inactive) | – | 53.5 µM (inactive) | 67.6 µM (inactive) | > 100 µM (inactive) | 66.1 µM (inactive) | 61.5 µM (inactive) | – | 63.4 µM (inactive)
CC(Cl)(/C=C/Cl)C(Cl)/C=C/C(Cl)(CCl)CBr (stereo unspecified) | 15.2 µM (inactive) | 1.54 µM (inactive) | 2.07 µM (inactive) | 1.65 µM (inactive) | 1.66 µM (inactive) | 3.37 µM (inactive) | 1.45 µM (inactive) | 2.09 µM (inactive) | 6.53 µM (inactive) | – | 2.24 µM (inactive) | 3.82 µM (inactive) | 7.52 µM (inactive) | 3.17 µM (inactive) | 2.2 µM (inactive) | 0.533 µM (active)
O=C(CC(=O)N1N=C(N2c3ccccc3Sc3ccccc32)CC1c1ccccc1)Nc1ccc(Cl)cc1 (stereo unspecified) | > 100 µM (inactive) | > 100 µM (inactive) | > 100 µM (inactive) | > 10 µM (inactive) | > 100 µM (inactive) | > 100 µM (inactive) | – | > 100 µM (inactive) | > 100 µM (inactive) | > 100 µM (inactive) | > 100 µM (inactive) | – | > 100 µM (inactive) | > 100 µM (inactive) | > 100 µM (inactive) | > 10 µM (inactive)
O=C(Nc1nc2ncn(CC(COc3ccccc3)OC(=O)c3ccccc3)c2c(=O)[nH]1)c1ccccc1 (stereo unspecified) | > 100 µM (inactive) | > 100 µM (inactive) | – | > 100 µM (inactive) | > 100 µM (inactive) | > 100 µM (inactive) | > 100 µM (inactive) | – | 48 µM (inactive) | > 100 µM (inactive) | > 100 µM (inactive) | > 100 µM (inactive) | > 100 µM (inactive) | > 100 µM (inactive) | > 100 µM (inactive) | < 0.01 µM (active)
